The results in this text go back to patent publication US7901893B2, “NPC1L1 (NPC3) and methods of identifying ligands thereof” (Merck Sharp & Dohme Corp., priority 2004, dated 2011).

The target in assay [1] is T1, rat NPC1L1 (Rattus norvegicus, UniProt Q6T3U3). As to the kind of experiment: Binding to membranes of HEK-293 cells expressing recombinant rat NPC1L1. Set-up: expressed in transfected cells; host or cells: HEK-293 cells (ATCC), transient, pCR3.1; membranes. To be noted: 0.03% sodium taurocholate and 0.05% digitonin; 1.25 mg protein/ml, 100 nM 1. On the procedure:
(§1) Transient expression of NPC1L1. Plasmid pCR3.1 expressing rat NPC1L1 (Genbank AY437867) or human NPC1L1 (Genbank AY437865) were prepared using standard molecular biology protocols. HEK-293 cells (ATCC) were seeded at 10×10^6 cells per T-225 flask (Corning) in DMEM containing 10% fetal calf serum, 4.5 g/L D-glucose and L-glutamine, 18 hours prior to transfection. They were transiently transfected with 25 μg of DNA using Fugene transfection reagent (Roche Biochemical) at a ratio of 6:1 Fugene:DNA. Following transfection, the cells were incubated at 37° C. and 5% CO2 for 48 hours, and then harvested using PBS based cell dissociation buffer (Gibco), pelleted at 500×g, snap frozen on dry ice, and stored at −80° C.
(§2) Membrane preparation from HEK-293 cells. Membranes were prepared by resuspending the frozen cell pellets in ten volumes of 20 mM HEPES/Tris buffer at pH 7.40 containing 8% sucrose, and sonicating the suspensions with a probe sonicator on ice until most of the cells were lysed. To isolate the membranes, the sonicates were centrifuged at 1600×g for 10 min to remove cell debris, and then the supernatants were centrifuged at 125,000×g for 1 hour to recover the membranes. These membranes were resuspended in 20 mM HEPES/Tris buffer at pH 7.40 containing 160 mM NaCl and 5% glycerol, and stored at 10-20 mg/ml protein at −80° C.
(§3) Analog structures are defined in Table 12.

The target of assay [2] is T2, human NPC1L1 (Homo sapiens, UniProt Q9UHC9, G1187D/M616T/T1073A).
T2 sequence (Q9UHC9 22-1332 isoform Q9UHC9-2 M616T/T1046A/G1160D limits assumed): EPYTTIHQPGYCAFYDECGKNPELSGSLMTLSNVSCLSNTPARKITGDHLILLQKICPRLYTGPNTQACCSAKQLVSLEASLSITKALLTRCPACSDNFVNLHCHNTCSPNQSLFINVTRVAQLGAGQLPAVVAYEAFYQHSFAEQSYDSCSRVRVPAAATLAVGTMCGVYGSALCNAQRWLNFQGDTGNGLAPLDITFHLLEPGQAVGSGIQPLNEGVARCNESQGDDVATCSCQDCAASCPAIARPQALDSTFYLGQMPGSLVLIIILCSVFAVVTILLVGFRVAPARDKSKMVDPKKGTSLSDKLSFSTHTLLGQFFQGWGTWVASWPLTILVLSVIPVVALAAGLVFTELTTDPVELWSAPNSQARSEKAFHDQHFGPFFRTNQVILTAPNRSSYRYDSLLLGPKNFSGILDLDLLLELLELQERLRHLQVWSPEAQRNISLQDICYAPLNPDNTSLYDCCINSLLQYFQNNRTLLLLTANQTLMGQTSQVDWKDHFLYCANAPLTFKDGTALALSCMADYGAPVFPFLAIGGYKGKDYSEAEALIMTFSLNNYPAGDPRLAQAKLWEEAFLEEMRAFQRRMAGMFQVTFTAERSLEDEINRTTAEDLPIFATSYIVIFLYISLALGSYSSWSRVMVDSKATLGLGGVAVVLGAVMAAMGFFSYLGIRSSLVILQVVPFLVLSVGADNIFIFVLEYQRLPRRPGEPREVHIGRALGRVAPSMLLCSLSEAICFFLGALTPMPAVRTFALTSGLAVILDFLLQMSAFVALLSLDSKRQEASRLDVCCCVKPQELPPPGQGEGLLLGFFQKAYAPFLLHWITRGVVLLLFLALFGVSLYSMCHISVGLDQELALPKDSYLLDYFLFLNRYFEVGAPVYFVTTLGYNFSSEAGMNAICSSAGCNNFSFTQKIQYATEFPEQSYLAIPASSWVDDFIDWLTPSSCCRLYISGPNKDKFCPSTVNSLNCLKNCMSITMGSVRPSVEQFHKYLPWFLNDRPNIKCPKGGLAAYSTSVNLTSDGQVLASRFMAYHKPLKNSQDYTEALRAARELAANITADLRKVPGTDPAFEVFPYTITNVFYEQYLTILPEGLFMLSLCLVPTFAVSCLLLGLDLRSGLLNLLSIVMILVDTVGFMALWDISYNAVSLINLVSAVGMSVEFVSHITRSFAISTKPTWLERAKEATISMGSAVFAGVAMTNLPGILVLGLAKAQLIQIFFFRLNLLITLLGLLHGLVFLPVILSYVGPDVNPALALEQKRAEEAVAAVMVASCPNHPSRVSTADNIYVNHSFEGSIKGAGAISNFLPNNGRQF
As to the kind of experiment: Binding to membranes of HEK-293 cells expressing recombinant human NPC1L1. Set-up: expressed in transfected cells; host or cells: HEK-293 cells (ATCC), transient, pCR3.1; membranes. The note with it: 0.03% sodium taurocholate and 0.05% digitonin; 1.25 mg protein/ml, 100 nM 1. On the procedure: as §1, §2, §3

The target of assay [3] is T3, mouse intestinal brush border membranes (Mus musculus, UniProt Q6T3U4).
T3 construct: from tissue; host or cells: mouse small-intestinal mucosa (C57BL/6J; wild-type littermates in the knockout comparison), brush border membrane vesicles
Put plainly: Binding assay with mouse (wild type) brush border membrane vesicles. The protocol: Glass fiber filters (GF/C) were obtained from Whatman.
For rhesus brush border membranes vesicles, 56 μg protein/assay were incubated with 25 nM ^3H-EZE-glucuronide in the presence of increasing concentrations of EZE-glucuronide and 2. For rat brush border membranes vesicles, 150 μg protein/assay were incubated with 50 nM ^3H-EZE-glucuronide in the presence of increasing concentrations of EZE-glucuronide and 2. For mouse brush border membranes vesicles, 20 μg protein/assay were incubated with 3 nM ^35S-2 in the presence of increasing concentrations of EZE-glucuronide and 2.
Brush border membranes vesicles were prepared from intestinal tissues of wild type and NPC1L1 knockout (−/−) mice. 15, 30 and 60 μg protein/assay of brush border membranes vesicles were incubated with 4 nM ^35S-2 in buffer A for 3 hours at 37° C. in the presence and absence of 100 μM EZE-glucuronide.
For FIG. 14A, enterocyte brush border membranes were prepared from NPC1L1 deficient male mice and same sex wild-type littermates, and tested for binding of 1. […] Membranes from wild type mice are on the left and from NPC1L1 deficient mice on the right.

Assay [4] addresses T1, rat NPC1L1. Put plainly: ^35S-2 competition binding, rat NPC1L1 transfected CHO cells. The note with it: 5 nM ^35S-2, 2 hours at 37° C.; read-out: Recombinant rat NPC1L1 Ki. Set-up: expressed in transfected cells; pCDNA3). On the procedure:
Rat NPC1L1 transfected CHO cells (˜500,000 cells/assay) were incubated with 5 nM ^35S-2 (˜1 million dpm/assay) for 2 hours at 37° C. in the absence or presence of increasing concentrations of EZE-glucuronide (compound 1), compounds 2, 3, 5, 6, or 8. Compound 8 is an analog of compound 2 wherein the hydroxyl group in the 3-hydroxylpropyl moiety of 2 is replaced with an oxo group.

[5] abbreviates: 3 nM ^35S-2, 20 μg protein/assay, read-out: inhibition constant Ki, Mouse.

Read-outs that look alike come from different tables or passages of the source.

Consider `O=C(O)C1OC(Oc2ccc(C3C(CCC(O)c4ccc(F)cc4)C(=O)N3c3ccc(F)cc3)cc2)C(O)C(O)C1O` (single isomer, unassigned) [Compound 4], for which the Ki came to 74 µM in assay [1] and 130 µM in assay [2].

`O=C(O)[C@H]1O[C@@H](Oc2ccc([C@@H]3[C@@H](CC[C@H](O)c4ccc(F)cc4)C(=O)N3c3ccc(F)cc3)cc2)[C@H](O)[C@@H](O)[C@@H]1O` [Compound 1, Ezetimibe glucuronide]: the “affinity for mouse membranes (in words)” value in assay [3] is “low affinity”. In addition, the Ki in assay [3] (setting [5]) came to 2.3 µM; in assay [3] (wild-type mice, 5 mg/ml protein, 500 nM 1, 0.03% taurocholate, 0.05% digitonin, read-out: Ki, competition of unlabeled ezetimibe glucuronide against 1) it was 12 µM; in assay [1], 0.21 µM; in assay [4], 0.79 µM; in assay [2], 0.22 µM. Moreover, the Kd in assay [3] (age-matched wild-type mice, 0.03% sodium taurocholate and 0.05% digitonin) was determined as 12 µM; in assay [3] (murine membranes, text of b482) it was 10 µM. For the same compound, the IC50 in assay [3] (mouse, read-out: in vitro binding affinity (IC50)) was 12 µM.

Consider `CS(=O)(=O)NCC#Cc1ccc(N2C(=O)[C@H](CC[C@H](O)c3ccc(F)cc3)[C@H]2c2ccc(O[C@@H]3O[C@H](C(=O)O)[C@@H](O)[C@H](O)[C@H]3O)cc2)cc1` [Compound 2, 4-[(2S,3R)-3-[(3S)-3 (4-fluorophenyl)-3-hydroxypropyl]-1-(4-{3-[(methylsulfonyl)amino]prop-1-yn-1-yl}phenyl)-4-oxoazetidin-2-yl]phenyl β-D-glucopyranosiduronic acid], for which the “affinity for mouse membranes (in words)” value in assay [3] is “enhanced affinity”. Further, the Ki in assay [3] (setting [5]) stood at 0.144 µM; in assay [4], 0.012 µM. The “binding to wild type control membranes” value in assay [3] (4 nM ^35S-2) is reported as “detectable binding”. Further, the equilibrium dissociation constant (Kd) in assay [3] (control (wild type) mouse membranes, 4 nM ^35S-2, 3 hours at 37° C.) is 0.156 µM.

`O=C(O)[C@H]1O[C@@H](Oc2ccc([C@@H]3[C@@H](CCCc4ccc(F)cc4)C(=O)N3c3ccc(F)cc3)cc2)[C@H](O)[C@@H](O)[C@@H]1O` [Compound 3]: the Ki was 0.82 µM in assay [1], 2.4 µM in assay [4] and 1 µM in assay [2].

As for `O=C(O)[C@H]1O[C@@H](Oc2ccc([C@@H]3[C@@H](CC[C@@H](O)c4ccc(F)cc4)C(=O)N3c3ccc(F)cc3)cc2)[C@H](O)[C@@H](O)[C@@H]1O` [Compound 5], the Ki in assay [1] worked out at 1.7 µM; in assay [4], 5.8 µM; in assay [2], 1.3 µM.

With `O=C(CC[C@H]1C(=O)N(c2ccc(F)cc2)[C@@H]1c1ccc(O[C@@H]2O[C@H](C(=O)O)[C@@H](O)[C@H](O)[C@H]2O)cc1)c1ccc(F)cc1` [Compound 6], the Ki worked out at 23 µM in assay [1], 84.5 µM in assay [4] and 14 µM in assay [2].

Consider `O=C1[C@H](CC[C@H](O)c2ccc(F)cc2)[C@@H](c2ccc(O)cc2)N1c1ccc(F)cc1` [ezetimibe], for which, in assay [3] (Table 11, mouse, absence of detergents), the Kd was found to be 12 µM.
